According to patent US20250312468A1, “ANTI-PROTAC ANTIBODIES AND COMPLEXES” (Merck Patent GmbH, priority 2021, published 2025):

Experiments:
MDAMB468 cells = experiment: CellTiter-Glo cell viability assay (MIC2-based PAX); details: MDAMB468, complexes at 50% (1:1) loading, three independent experiments
Protocol: 2000 cells per well were seeded into white-opaque 384-well plates followed by overnight incubation in a humid chamber at 37° C. and 5% CO2. […] The assay was developed after 3 days if not otherwise stated using CellTiter-Glo Luminescent Cell Viability Assay as described in the manufacturer's protocol. In brief, the plates were equilibrated to room temperature for 30 minutes. 100 mL CellTiter-Glo Buffer were added to the CellTiter-Glo Substrate Flask and mixed well. 30 μL of the reagent was transferred to each well. After incubation for 3 minutes at room temperature while shaking at 550 rpm, the plate was incubated for another 10 minutes at room temperature. The luminescence was read on an Envision reader. The evaluation was performed using GraphPad Prism 8 by normalization of cells treated with sample to untreated cells. The data were fitted with 4 point logistic curve to determine the IC50 value.

BRD4 [1] = target: T1, BRD4 (Homo sapiens, UniProt O60885); experiment: BRD4 Western blot degradation assay in MV411 cells; assay type: cell-based; design: endogenous in cells; host or cells: MV411; details: CD33-positive MV411 cells, 24 h, complexes (1:1)
Protocol: Therefore, CD33-positive MV411 cells were treated with CD33xMIC7+GNE987 or DIGxMIC7+GNE987, as non-binding PAX control, at different concentrations and GNE987 alone as control. MV411 cells were cultured in RPMI-1640 medium supplemented with 10% FCS and penicillin-streptomycin. MV411 cells were seeded in 12-well plates at 1 million cells/ml in 2 ml culture medium and cultured overnight in cell incubator at 37° C. and 5% CO2. Complexation was performed as described in chapter 7.4. GNE987 only was preincubated at identical conditions but in absence of antibody. Subsequently, cells were treated by nanodrop dispersion using a Tecan dispenser with either CD33xMIC7+GNE987 (1:1), DIGxMIC7+GNE987 (1:1) or GNE987 in the respective concentration. All conditions were normalized to 0.0005% (v/V) DMSO and 3.0E-5% Tween20. Cells were incubated for 24 h in cell incubator at 37° C. and 5% CO2. […] Protein concentration was determined via Mettler Toledo UV5Nano photometer. […]
After incubation with corresponding HRP-labeled anti-rabbit/mouse secondary antibodies (GE-Healthcare) at 1:10,000 dilution, blots were detected using ECL solution (Advansta) and x-ray films (GE-Healthcare). Results were analyzed with ImageJ software (version 1.53K, NIH). […]

BRD4 [2] = target: T1, BRD4; experiment: BRD4 degradation, immunofluorescence imaging in MDA-MB-468 cells; assay type: cell-based; design: endogenous in cells; host or cells: MDA-MB-468; details: 4 nM, 43 h, relative to untreated cells
Protocol: BRD4 was chosen as the model protein for the disclosed invention due to the strong pharmacological effect (cell death) that is induced upon degradation of BRD4. For the evaluation of targeted BRD4 degradation, MDA-MB-468 cells were seeded into a black 96 well clear bottom plates (10,000 cells/well) followed by incubation (37° C., 5% CO2) in a humid chamber overnight. Test compounds were added using a D300e digital dispenser (Tecan) and incubated for 43 h (37° C., 5% CO2, humid chamber). Cells were washed 3× with PBS, fixed in 2% (v/V) formaldehyde for 15 min at rt and washed again (3×). To permeabilize cells, 0.2% (v/V) Triton-X-100 was added for 10 min at rt and removed by washing with PBS (3×). Wells were blocked with 3% (w/v) BSA in PBS for 60 min at rt, washed trice, and cells were incubated with 2.3 μg/mL rabbit anti-BRD4 antibody (Abcam) diluted in 3% BSA/PBS for […] at 4° C. overnight. […] After a final washing step, cells were preserved in 0.1% (w/V) sodium azide and transferred to a Cytation 5 cell imaging reader (Biotek). […] For quantitative analysis of nuclear BRD4 levels, only the green fluorescence (AF488) co-localized with DAPI staining was counted. Green fluorescence was normalized to cell number and expressed relative to untreated cells.

## Cc1ncsc1-c1ccc(CNC(=O)[C@@H]2C[C@@H](O)CN2C(=O)[C@@H](NC(=O)CCCCCCCCCCNC(=O)c2cc3c(cc2CS(C)(=O)=O)-c2cn(C)c(=O)c4[nH]cc(c24)CN3c2ncc(F)cc2F)C(C)(C)C)cc1 [GNE987]
MDAMB468 cells
  IC50: 0.79 nM
BRD4 [1]
  BRD4 degradation (Western blot): BRD4 degradation was found
BRD4 [2]
  remaining BRD4: 39.0%
